The values that follow come from patent US7417044B2, “Tadalafil having a large particle size and a process for preparation thereof” (Teva Pharmaceutical Industries Ltd., priority 2005, dated 2008).

For data set [1] the following is noted: prior-art tadalafil of U.S. Pat. No. 6,821,975; cited from earlier work.
A short description of data set [2]: Particle size of tadalafil by Malvern laser diffraction (Mastersizer S). The data set is classed as physicochemical. From the text: Measurement and characterization of particle size distributions is known in the art. It is possible to compare samples of particulate tadalafil on the basis of individual points on a cumulative particle size distribution curve. The measurements are represented as d(0.X)=Y (where X and Y are Arabic numerals), each “d” describing an individual point on a cumulative PSD curve. The number “X” represents the percentage (number, volume, or weight) of particles in the population having a nominal size up to and including “Y”. Thus, d(0.9)=250μ is characteristic of a PSD in which 90% (number, volume, or weight) of the particles in a population have a nominal size of about 250μ or less (at least some particles having a nominal dimension of 250μ) and so forth. When PSD is determined by the well-know laser-diffraction method described herein, the d(0.X) measurement depicts a volume average. The particle size of tadalafil described herein was measured by Malvern Laser Diffraction using a Mastersizer S instrument. The measuring instrument was equipped with a small cell dispersion unit MS1 with a digital dispersion unit controller. The measurement was performed by using range lens 300RF (working range 0.05-900 mcm), beam length: 2.40 mm, presentation 3$$D (Fraunhofer), number of sweeps 4000, and speed rate 2300±10 rpm. The dilution medium was 0.1% w/v Span 80 in a saturated solution of tadalafil in cyclohexane. The measurement began after 10 seconds of recirculation, after the powder was added directly into the measurement cell filled with the dilution medium. According to the accepted rules of Good Manufacturing Procedures, a sample of tadalafil was measured after a successful blank measurement (% obscuration NMT 0.1%) was performed.

Molecules are shown by their SMILES. Where “and” joins values, the source holds several entries; their conditions need not be identical. Equal values may be shown once.

As for `CN1CC(=O)N2[C@H](c3ccc4c(c3)OCO4)c3[nH]c4ccccc4c3C[C@@H]2C1=O` [tadalafil, (6R-trans)-6-(1,3-benzodioxol-5-yl)-2,3,6,7,12,12a-hexahydro-2-methyl-pyrazino[1′,2′:1,6]pyrido[3,4-b]indole-1,4-dione], the “particle size of 90% of the particles” value in data set [1] is “less than 40 microns”. Moreover, the “particle size, d(0.9)” value in data set [2] (Example 1, final dry material after industrial-scale crystallization from acetone/water with heating/cooling cycles) was 60-500 microns; in data set [2] (Example 2, final dry material after crystallization from acetone/water with heating/cooling cycles), greater than 60 microns; in data set [2] (Example 3, after milling with micronizer, 50 mm, 4.0 bar feed air and 3.0 bar milling air), “about 228.7 microns”; in data set [2] (Example 4, after milling with micronizer, 50 mm, 2.0 bar feed air and 1.0 bar milling air) it was “about 105.8 microns”; in data set [2] (Example 5, after milling with Pin-Mill, 9.6 Kg/hr feed rate and 12,000 rpm milling speed), “about 52.4 microns”; in data set [2] (Example 6, after milling with Pin-Mill, 9.6 Kg/hr feed rate and 4500 rpm milling speed), “about 202.7 microns”. Moreover, in data set [2] (starting sample before milling (Examples 3-6)), the “particle size, d(0.9)” value is 584 microns and 538.6 microns and 553.5 microns.
